Results: PubChem BioAssay AID248 (DTP/NCI, 2004)
Inconclusive results and toxic doses are left out.

Tested on: L1210 leukemia ip in BDF1 mice, survival T/C
Test: NCI In Vivo Anticancer Drug Screen. Data for tumor model L1210 Leukemia (intraperitoneal) in B6D2F1 (BDF1) mice
Settings: endpoint: mean survival time, higher = longer survival
How it was run: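 Survival endpoint. Drug-treated group vs vehicle group, expressed as T divided by C. Tumor passaged by transplantation.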

[1] = dose: 100.0 mg/kg/injection, schedule: Q01DX001 (ip), vehicle: saline
[2] = dose: 200.0 mg/kg/injection, schedule: Q01DX001 (ip), vehicle: saline
[3] = dose: 400.0 mg/kg/injection, schedule: Q01DX001 (ip), vehicle: saline
[4] = dose: 100.0 mg/kg/injection, schedule: Q04DX003 (ip), vehicle: Klucel (hydroxypropylcellulose) (HPC)
[5] = dose: 200.0 mg/kg/injection, schedule: Q04DX003 (ip), vehicle: Klucel (hydroxypropylcellulose) (HPC)
[6] = dose: 400.0 mg/kg/injection, schedule: Q04DX003 (ip), vehicle: Klucel (hydroxypropylcellulose) (HPC)
[7] = dose: 200.0 mg/kg/injection, schedule: Q01DX001 (ip), vehicle: carboxymethylcellulose (CMC)
[8] = dose: 400.0 mg/kg/injection, schedule: Q01DX001 (ip), vehicle: carboxymethylcellulose (CMC)
[9] = dose: 100.0 mg/kg/injection, schedule: Q04DX003 (ip), vehicle: saline with Tween-80
[10] = dose: 200.0 mg/kg/injection, schedule: Q04DX003 (ip), vehicle: saline with Tween-80
[11] = dose: 100.0 mg/kg/injection, schedule: Q04DX003 (ip), vehicle: saline
[12] = dose: 200.0 mg/kg/injection, schedule: Q04DX003 (ip), vehicle: saline
[13] = dose: 400.0 mg/kg/injection, schedule: Q04DX003 (ip), vehicle: saline with Tween-80

NC(CSS(=O)(=O)O)=NCc1ccccn1
T/C (dose: 100.0 mg/kg/injection, schedule: Q04DX002 (ip), vehicle: Klucel (hydroxypropylcellulose) (HPC)): 95 % of control
T/C (dose: 200.0 mg/kg/injection, schedule: Q04DX002 (ip), vehicle: Klucel (hydroxypropylcellulose) (HPC)): 101 % of control
T/C (dose: 400.0 mg/kg/injection, schedule: Q04DX002 (ip), vehicle: Klucel (hydroxypropylcellulose) (HPC)): 98 % of control

COc1cccc2c1CCC/C2=N\N(C)C
T/C (dose: 100.0 mg/kg/injection, schedule: Q04DX003 (sc), vehicle: olive oil, sesame oil, peanut oil): 107 % of control
T/C (dose: 200.0 mg/kg/injection, schedule: Q04DX003 (sc), vehicle: olive oil, sesame oil, peanut oil): 105 % of control
T/C (dose: 400.0 mg/kg/injection, schedule: Q04DX003 (sc), vehicle: olive oil, sesame oil, peanut oil): 109 % of control

CC(=O)ONC(NOC(C)=O)N[N+](=O)[O-]
T/C [1]: 103 % of control
T/C [2]: 98 % of control
T/C [3]: 102 % of control

Cc1cc(N(CCCCl)CCCCl)ccc1C=Nc1cc(Br)c(O)c(Br)c1
T/C [4]: 94 % of control
T/C [5]: 95 % of control
T/C [6]: 96 % of control

CNCCOCc1ccccc1
T/C [1]: 96 % of control
T/C [2]: 91 % of control

CCOC(=O)C1(C(=O)OCC)C2CC(C)=C(C)CC21 (configuration not stated)
T/C (dose: 50.0 mg/kg/injection, schedule: Q01DX009 (ip), vehicle: acetone): 92 % of control
T/C (dose: 100.0 mg/kg/injection, schedule: Q01DX009 (ip), vehicle: acetone): 90 % of control

C=C1CC2(c3ccccc3)C(=O)C1(c1ccccc1)C(c1ccccc1)=C2c1ccccc1 (configuration not stated)
T/C (dose: 50.0 mg/kg/injection, schedule: Q01DX001 (ip), vehicle: carboxymethylcellulose (CMC)): 96 % of control
T/C [7]: 90 % of control
T/C [8]: 89 % of control

C#CC(NC(C)(C)CC(C)(C)C)C(C)C (configuration not stated)
T/C (dose: 100.0 mg/kg/injection, schedule: Q04DX002 (ip), vehicle: saline): 109 % of control
T/C (dose: 200.0 mg/kg/injection, schedule: Q04DX002 (ip), vehicle: saline): 109 % of control
T/C (dose: 400.0 mg/kg/injection, schedule: Q04DX002 (ip), vehicle: saline): 100 % of control

CCCCP(=O)(CCCC)CCP(=O)(CCCC)CCCC
T/C [9]: 88 % of control
T/C [10]: 97 % of control

CN(C)c1ccc2c(c1)Cc1cc(N3C(=O)C=CC3=O)ccc1-2
T/C [4]: 101 % of control
T/C [5]: 101 % of control
T/C [6]: 95 % of control

Cc1ccc2c(c1)-c1[nH]c3ccccc3c1CS2
T/C (dose: 100.0 mg/kg/injection, schedule: Q04DX003 (ip), vehicle: acetone): 105 % of control
T/C (dose: 200.0 mg/kg/injection, schedule: Q04DX003 (ip), vehicle: acetone): 110 % of control

COc1cccc(NC(=O)Nc2ccccc2Cl)c1
T/C (dose: 100.0 mg/kg/injection, schedule: Q01DX009 (ip), vehicle: gum acacia): 93 % of control
T/C (dose: 100.0 mg/kg/injection, schedule: Q04DX003 (ip), vehicle: gum acacia): 92 % of control
T/C (dose: 200.0 mg/kg/injection, schedule: Q01DX009 (ip), vehicle: gum acacia): 98 % of control
T/C (dose: 200.0 mg/kg/injection, schedule: Q04DX003 (ip), vehicle: gum acacia): 90 % of control
T/C (dose: 400.0 mg/kg/injection, schedule: Q01DX009 (ip), vehicle: gum acacia): 96 % of control
T/C (dose: 400.0 mg/kg/injection, schedule: Q04DX003 (ip), vehicle: gum acacia): 94 % of control

CCOP(=O)(/C=C/NC1CCCCC1)OCC
T/C (dose: 50.0 mg/kg/injection, schedule: Q04DX003 (ip), vehicle: saline): 90 % of control
T/C [1]: 109 % of control
T/C [11]: 89 % of control
T/C [2]: 114 % of control
T/C [12]: 101 % of control

CS(=O)(=O)/C=C(\I)c1ccccc1
T/C [1]: 97 % of control
T/C [2]: 97 % of control
T/C [3]: 93 % of control

CN(C)c1ccc(SCC(=O)c2ccccc2)cc1
T/C [9]: 93 % of control
T/C [10]: 101 % of control
T/C [13]: 95 % of control

C[n+]1cc2cc(O)c(O)cc2c2ccc3cc(O)c(O)cc3c21
T/C (dose: 40.0 mg/kg/injection, schedule: Q01DX009 (ip), vehicle: saline): 102 % of control
T/C (dose: 80.0 mg/kg/injection, schedule: Q01DX009 (ip), vehicle: saline): 107 % of control
T/C (dose: 120.0 mg/kg/injection, schedule: Q01DX009 (ip), vehicle: saline): 98 % of control
T/C (dose: 240.0 mg/kg/injection, schedule: Q01DX009 (ip), vehicle: saline): 98 % of control

NC(=S)N/N=C/c1ccc(OC(=O)COc2ccccc2Cl)cn1
T/C [9]: 124 % of control
T/C [13]: 93 % of control

CCOC(=O)CC(N)CC(=O)OCC
T/C [1]: 104 % of control
T/C [2]: 104 % of control
T/C [3]: 106 % of control

Cc1cc(OCCCC(=O)O)ccc1Cl
T/C (dose: 50.0 mg/kg/injection, schedule: Q01DX001 (ip), vehicle: saline): 104 % of control
T/C [1]: 104 % of control
T/C [2]: 102 % of control
T/C [3]: 96 % of control

O=c1[nH]c2cc(Cl)ccc2c2ccccc12
T/C (dose: 100.0 mg/kg/injection, schedule: Q01DX001 (ip), vehicle: carboxymethylcellulose (CMC)): 99 % of control
T/C [7]: 97 % of control
T/C [8]: 95 % of control

CC(=O)OC1([N+](=O)[O-])c2ccccc2C2CC1c1ccccc12 (configuration not stated)
T/C (dose: 75.0 mg/kg/injection, schedule: Q04DX003 (ip), vehicle: Klucel (hydroxypropylcellulose) (HPC)): 112 % of control
T/C (dose: 100.0 mg/kg/injection, schedule: Q01DX001 (ip), vehicle: Klucel (hydroxypropylcellulose) (HPC)): 91 % of control
T/C (dose: 150.0 mg/kg/injection, schedule: Q04DX003 (ip), vehicle: Klucel (hydroxypropylcellulose) (HPC)): 107 % of control
T/C (dose: 200.0 mg/kg/injection, schedule: Q01DX001 (ip), vehicle: Klucel (hydroxypropylcellulose) (HPC)): 99 % of control
T/C (dose: 300.0 mg/kg/injection, schedule: Q04DX003 (ip), vehicle: Klucel (hydroxypropylcellulose) (HPC)): 97 % of control
T/C (dose: 400.0 mg/kg/injection, schedule: Q01DX001 (ip), vehicle: Klucel (hydroxypropylcellulose) (HPC)): 100 % of control

CCOC(=O)N1Cc2cc3cc4c(cc3nc2C1)OCO4
T/C [11]: 94 % of control
T/C [12]: 94 % of control
T/C (dose: 400.0 mg/kg/injection, schedule: Q04DX003 (ip), vehicle: saline): 96 % of control

O=NN(CCF)C(=O)NC1CC2CCC1C2 (configuration not stated)
T/C (dose: 3.12 mg/kg/injection, schedule: Q01DX001 (ip), vehicle: other): 108 % of control
T/C (dose: 5.7 mg/kg/injection, schedule: Q01DX001 (ip), vehicle: other): 104 % of control
T/C (dose: 6.25 mg/kg/injection, schedule: Q01DX001 (ip), vehicle: other): 118 % of control
T/C (dose: 12.5 mg/kg/injection, schedule: Q01DX001 (ip), vehicle: other): 150 % of control
T/C (dose: 23.0 mg/kg/injection, schedule: Q01DX001 (ip), vehicle: other): 180 % of control
T/C (dose: 25.0 mg/kg/injection, schedule: Q01DX001 (ip), vehicle: other): 180 % of control
T/C (dose: 37.0 mg/kg/injection, schedule: Q01DX001 (ip), vehicle: other): 308 % of control
T/C (dose: 37.5 mg/kg/injection, schedule: Q01DX001 (ip), vehicle: other): 361 % of control
T/C (dose: 46.0 mg/kg/injection, schedule: Q01DX001 (ip), vehicle: other): 310 % of control
T/C (dose: 56.0 mg/kg/injection, schedule: Q01DX001 (ip), vehicle: other): 348 % of control

COc1ccc(C(O)CCN2CCCCC2)cc1 (configuration not stated)
T/C (dose: 100.0 mg/kg/injection, schedule: Q01DX001 (ip), vehicle: saline with Tween-80): 112 % of control

O=C(C[n+]1ccccc1)c1ccc(S(=O)(=O)c2ccccc2)cc1
T/C (dose: 12.5 mg/kg/injection, schedule: Q04DX003 (ip), vehicle: Klucel (hydroxypropylcellulose) (HPC)): 95 % of control
T/C (dose: 25.0 mg/kg/injection, schedule: Q04DX003 (ip), vehicle: Klucel (hydroxypropylcellulose) (HPC)): 93 % of control
T/C (dose: 50.0 mg/kg/injection, schedule: Q04DX003 (ip), vehicle: Klucel (hydroxypropylcellulose) (HPC)): 89 % of control
T/C [4]: 94 % of control

COc1cc(C=O)ccc1OCCCOc1ccc(C=O)cc1OC
T/C (dose: 50.0 mg/kg/injection, schedule: Q01DX009 (ip), vehicle: saline with Tween-80): 104 % of control
T/C (dose: 100.0 mg/kg/injection, schedule: Q01DX009 (ip), vehicle: saline with Tween-80): 93 % of control
T/C (dose: 200.0 mg/kg/injection, schedule: Q01DX009 (ip), vehicle: saline with Tween-80): 101 % of control

c1ccc2c(B(c3cccc4ccccc34)c3cccc4ccccc34)cccc2c1
T/C [4]: 94 % of control
T/C [5]: 97 % of control
T/C [6]: 102 % of control
